SMILES strings stand for the structures. Converted amounts (≈) assume the structure as drawn.

Conditions in the first data set: not given
In the case of `CCCCCCl`, the logP stood at 2.73.

Staying with this data set, now noted: 25 °C.
In turn, `CCCCOC` registered a solubility of 102 mM (≈ 9010 µg/mL).

The compound `Clc1ccccc1I` displayed a solubility of 0.291 mM (≈ 69.4 µg/mL).

In turn, `CCC(=O)C(C)C` registered a solubility of 155 mM (≈ 15500 µg/mL).

`CCC(C)C(C)(C)O` (stereo unspecified): the solubility was determined as 135 mM (≈ 15700 µg/mL).

In turn, `CCCCCCCCC(=O)OCC` yielded a solubility of 0.158 mM (≈ 29.5 µg/mL).

On to `CCC(=O)OC(C)C`, for which the solubility came out at 51.2 mM (≈ 5950 µg/mL).

Regarding `CCCCCCC=O`, the solubility amounted to 10.9 mM (≈ 1250 µg/mL).

As to `CCOC(=O)CCCCCCCC(=O)OCC`, the solubility was 1.02 mM (≈ 250 µg/mL).

`CCOC(=O)CCCCCCC(=O)OCC`: the solubility is 2.95 mM (≈ 679 µg/mL).

Turning to `CCCC(Cl)Cl`, the solubility worked out at 3.96 mM (≈ 504 µg/mL).

The compound `CCOC(C)C` displayed a solubility of 278 mM (≈ 24500 µg/mL).

In the case of `Brc1ccc(Br)c(Br)c1`, the solubility stood at 0.0222 mM (≈ 7 µg/mL).

`CCCCCCCCCC(C)O` (stereo unspecified) had a solubility of 1.15 mM (≈ 197 µg/mL).

As for `CC(C)CC(C)(C)O`, the solubility worked out at 113 mM (≈ 13200 µg/mL).

`CCCCCCC(=O)OCC` returned a solubility of 1.83 mM (≈ 290 µg/mL).

Regarding `FC(F)(F)CCl`, the solubility was 77.7 mM (≈ 9200 µg/mL).

Compound `CCC(C)(O)C(C)(C)C` (stereo unspecified) gave a solubility of 53.6 mM (≈ 6980 µg/mL).

Consider `Ic1cccc(I)c1`, for which the solubility is 0.0286 mM (≈ 9.43 µg/mL).

`CCCOCC` returned a solubility of 173 mM (≈ 15200 µg/mL).

For the compound `C=COC=C`, the solubility turned out to be 77.6 mM (≈ 5440 µg/mL).

Compound `CC(C)CC(C)CO` (stereo unspecified) came in with a solubility of 25.1 mM (≈ 2910 µg/mL).

In the case of `C/C=C\C`, the solubility is 10.3 mM (≈ 580 µg/mL).

`CCCCCC[C@@H](O)CC` returned a solubility of 2.18 mM (≈ 315 µg/mL).

As for `CCCCCCCC(=O)OCC`, the solubility was 0.407 mM (≈ 70.1 µg/mL).

In the case of `CCCCC(=O)OCC`, the solubility was 17 mM (≈ 2210 µg/mL).

Turning to `Clc1cccc(I)c1`, the solubility is 0.288 mM (≈ 68.6 µg/mL).

In the case of `CCCCCC(=O)OCC`, the solubility turned out to be 4.36 mM (≈ 629 µg/mL).

On to `C=CC(O)CC` (stereo unspecified), for which the solubility was 1050 mM (≈ 90000 µg/mL).

`CC(C)C(C)(C)O` had a solubility of 407 mM (≈ 41500 µg/mL).

In turn, `COc1ccc(NC(C)=O)cc1` returned a solubility of 91.1 mM (≈ 15100 µg/mL).

`CCOC(=O)CCCCCC(=O)OCC` came in with a solubility of 9.4 mM (≈ 2030 µg/mL).

For the compound `Clc1ccccc1Br`, the solubility was determined as 0.383 mM (≈ 73.4 µg/mL).

In turn, `CCCCOC(=O)c1ccc(N)cc1` yielded a solubility of 1.75 mM (≈ 337 µg/mL).

Compound `CCCOC(=O)CC` registered a solubility of 45.6 mM (≈ 5300 µg/mL).

Regarding `CCC(C)C(O)C(C)CC` (stereo unspecified), the solubility was 3.08 mM (≈ 445 µg/mL).

`CC(C)COC=O` yielded a solubility of 99.9 mM (≈ 10200 µg/mL).

With `C#CCCCCCCC`, the solubility amounted to 0.068 mM (≈ 8.45 µg/mL).

Consider `CC(C)CCOC=O`, for which the solubility turned out to be 29.3 mM (≈ 3400 µg/mL).

For `CCCCCCCCCC(=O)OCC`, the solubility is 0.0793 mM (≈ 15.9 µg/mL).

The same data set, now with this note: 27 °C.
In turn, `Ic1ccccc1I` displayed a solubility of 0.0591 mM (≈ 19.5 µg/mL).

The values are drawn from the OPERA property sets (Mansouri et al. 2018).
